Reference: patent publication US12110293B2, “Substituted triazolo quinoxaline derivatives” (GRÜNENTHAL GMBH, priority 2018, dated 2024)

Molecular target: T1, glucocorticoid receptor (Homo sapiens, UniProt P04150)
T1 construct: expressed in transfected cells
T1 sequence (P04150 524-758 limits assumed): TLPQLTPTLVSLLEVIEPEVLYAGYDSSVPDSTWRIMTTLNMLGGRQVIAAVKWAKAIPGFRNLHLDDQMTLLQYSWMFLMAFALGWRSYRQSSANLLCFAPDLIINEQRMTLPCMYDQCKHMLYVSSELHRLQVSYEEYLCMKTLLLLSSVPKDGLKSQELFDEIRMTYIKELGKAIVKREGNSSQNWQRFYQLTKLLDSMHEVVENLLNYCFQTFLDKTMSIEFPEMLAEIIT
Test: Agonistic mode of action on the glucocorticoid receptor (CHO-Gal4/GR luciferase reporter cell line)
Type: cell-based
Conditions: range class observed in the agonistic assay or the antagonistic assay (CHO-Gal4/GR reporter cells); table does not say which mode applies per example
In short: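 CHO cells stably carrying GAL4 DBD–GR ligand-binding-domain fusion and GAL4-UAS firefly luciferase reporter, 5000 cells/well grown 24 h, then compounds added in Opti-MEM at 8 half-log concentrations from 10 μM to 0.003 μM (0.5% DMSO), quadruplicates. Agonist-induced luminescence read on FLIPR Tetra; EC50 calculated.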

SMILES | IC50 or EC50 (agonist or antagonist mode not specified) [µM]
COc1c(-c2cc(F)cc3c2cnn3S(C)(=O)=O)c(F)cc2c1-n1c(C)nnc1C(C)(C)N2 [Example 339, 7-Fluoro-8-(6-fluoro-1-methylsulfonyl-1H-indazol-4-yl)-9-methoxy-1,4,4-trimethyl-5H-[1,2,4]triazolo[4,3-a]quinoxaline] | 0.1 to 1
Cc1cc(-c2c(F)cc3c(c2C(F)F)-n2c(C)nnc2C(C)(C)N3)c2ccn(S(C)(=O)=O)c2c1 [Example 478, 9-(Difluoro-methyl)-7-fluoro-1,4,4-trimethyl-8-(6-methyl-1-methylsulfonyl-1H-indol-4-yl)-5H-[1,2,4]triazolo[4,3-a]quinoxaline] | 0.1 to 1
Cc1c[nH]c2c(-c3ccc4c(c3C(F)(F)F)-n3c(C)nnc3C(C)(C)N4)cccc12 [Example 503, 1,4,4-Trimethyl-8-(3-methyl-1H-indol-7-yl)-9-(trifluoromethyl)-5H-[1,2,4]triazolo[4,3-a]quinoxaline] | 0.1 to 1
Cc1c(-c2cccc3c2ccn3S(C)(=O)=O)c(OC(F)F)cc2c1-n1c(C)nnc1C(C)(C)N2 [Example 318, 7-(Difluoro-methoxy)-1,4,4,9-tetramethyl-8-(1-methylsulfonyl-1H-indol-4-yl)-5H-[1,2,4]triazolo[4,3-a]quinoxaline] | 0.1 to 1
Cc1c(-c2cc(F)cc3c2ccn3S(C)(=O)=O)c(OC(F)F)cc2c1-n1c(C)nnc1C(C)(C)N2 [Example 335, 7-(Difluoro-methoxy)-8-(6-fluoro-1-methylsulfonyl-1H-indol-4-yl)-1,4,4,9-tetramethyl-5H-[1,2,4] triazolo[4,3-a]quinoxaline] | 0.1 to 1
Cc1c(-c2cc(F)cc3c(C)c[nH]c23)c(Cl)cc2c1-n1c(C)nnc1C(C)(C)N2 [Example 363, 7-Chloro-8-(5-fluoro-3-methyl-1H-indol-7-yl)-1,4,4,9-tetramethyl-5H-[1,2,4]triazolo[4,3-a]quinoxaline] | < 0.1
Cc1cc2c(-c3c(F)cc4c(c3F)-n3c(C)nnc3C(C)(C)N4)cc(F)cc2[nH]1 [Example 5, 7,9-difluoro-8-(6-fluoro-2-methyl-1H-indol-4-yl)-1,4,4-trimethyl-4,5-dihydro-[1,2,4]triazolo[4,3-a]quinoxaline] | 0.1 to 1
Cc1c(-c2cc(F)cc3c2ccn3S(C)(=O)=O)c(C(F)(F)F)cc2c1-n1c(C)nnc1C(C)(C)N2 [Example 83, 8-(6-Fluoro-1-methylsulfonyl-1H-indol-4-yl)-1,4,4,9-tetramethyl-7-(trifluoromethyl)-5H-[1,2,4]triazolo[4,3-a]quinoxaline] | 1 to 15
Cc1nnc2n1-c1c(cc(F)c(-c3cccc4c3ccn4CCN(C)C)c1F)NC2(C)C [Example 383, [2-[4-(7,9-Difluoro-1,4,4-trimethyl-5H-[1,2,4]triazolo[4,3-a]quinoxalin-8-yl)-1H-indol-1-yl]-ethyl]-dimethyl-amine] | 1 to 15
Cc1nnc2n1-c1c(cc(F)c(-c3cccc4c3ccn4CC(F)F)c1C(F)F)NC2(C)C [Example 398, 8-[1-(2,2-Difluoro-ethyl)-1H-indol-4-yl]-9-(difluoro-methyl)-7-fluoro-1,4,4-trimethyl-5H-[1,2,4]triazolo [4,3-a]quinoxaline] | 0.1 to 1
COc1c(-c2cccc3c2cnn3C)c(F)cc2c1-n1c(C)nnc1C(C)(C)N2 [Example 264, 7-Fluoro-9-methoxy-1,4,4-trimethyl-8-(1-methyl-1H-indazol-4-yl)-5H-[1,2,4]triazolo[4,3-a]quinoxaline] | 0.1 to 1
COc1cc2c(c(C(F)(F)F)c1-c1cc(F)cc3c1ccn3S(C)(=O)=O)-n1c(C)nnc1C(C)(C)N2 [Example 329, 8-(6-Fluoro-1-methylsulfonyl-1H-indol-4-yl)-7-methoxy-1,4,4-trimethyl-9-(trifluoromethyl)-5H-[1,2,4]triazolo[4,3-a]quinoxaline] | 0.1 to 1
Cc1c(-c2cc(F)cc3c2cnn3S(C)(=O)=O)c(F)cc2c1-n1c(C)nnc1C(C)(C)N2 [Example 279, 7-Fluoro-8-(6-fluoro-1-methylsulfonyl-1H-indazol-4-yl)-1,4,4,9-tetramethyl-5H-[1,2,4]triazolo[4,3-a]quinoxaline] | < 0.1
Cc1c(-c2cccc3c2ccn3CC(F)F)c(Cl)cc2c1-n1c(C)nnc1C(C)(C)N2 [Example 327, 7-Chloro-8-[1-(2,2-difluoro-ethyl)-1H-indol-4-yl]-1,4,4,9-tetramethyl-5H-[1,2,4]triazolo[4,3-a]quinoxaline] | 0.1 to 1
Cc1nnc2n1-c1c(cc(F)c(-c3cccc4c(C(F)(F)F)c[nH]c34)c1F)NC2(C)C [Example 10, 7,9-difluoro-1,4,4-trimethyl-8-(3-(trifluoromethyl)-1H-indol-7-yl)-4,5-dihydro-[1,2,4]triazolo[4,3-a]quinoxaline] | 0.1 to 1
Cc1nnc2n1-c1c(cc(F)c(-c3cc(F)cc4c3ccn4C3CC3)c1C(F)(F)F)NC2(C)C [Example 88, 8-(1-Cyclopropyl-6-fluoro-1H-indol-4-yl)-7-fluoro-1,4,4-trimethyl-9-(trifluoromethyl)-5H-[1,2,4]triazolo[4,3-a]quinoxaline] | < 0.1
Cc1cc2c(c(C)c1-c1cc(F)cc3c1cnn3S(C)(=O)=O)-n1c(C)nnc1C(C)(C)N2 [Example 373, 8-(6-Fluoro-1-methylsulfonyl-1H-indazol-4-yl)-1,4,4,7,9-pentamethyl-5H-[1,2,4]triazolo[4,3-a]quinoxaline] | 0.1 to 1
Cc1c(-c2cccc3c2ccn3S(C)(=O)=O)ccc2c1-n1c(C)nnc1C(C)(C)N2 [Example 450, 1,4,4,9-tetramethyl-8-(1-(methylsulfonyl)-1H-indol-4-yl)-4,5-dihydro-[1,2,4]triazolo[4,3-a]quinoxaline] | 0.1 to 1
Cc1nnc2n1-c1c(cc(Cl)c(-c3cccc4c3ccn4S(C)(=O)=O)c1F)NC2(C)C [Example 284, 7-Chloro-9-fluoro-1,4,4-trimethyl-8-(1-methylsulfonyl-1H-indol-4-yl)-5H-[1,2,4]triazolo[4,3-a]quinoxaline] | 0.1 to 1
Cc1c(-c2cccc3c2ccn3C)c(F)cc2c1-n1c(C)nnc1C(C)(C)N2 [Example 486, 7-Fluoro-1,4,4,9-tetramethyl-8-(1-methyl-1H-indol-4-yl)-5H-[1,2,4]triazolo[4,3-a]quinoxaline] | < 0.1
COc1c(-c2cccc3c2ccn3C(=O)OC(C)(C)C)c(F)cc2c1-n1c(C)nnc1C(C)(C)N2 [Example 260, 4-(7-Fluoro-9-methoxy-1,4,4-trimethyl-5H-[1,2,4]triazolo[4,3-a]quinoxalin-8-yl)-1H-indole-1-carboxylic acid tert-butyl ester] | 0.1 to 1
Cc1c[nH]c2c(-c3c(C(F)F)cc4c(c3F)-n3c(C)nnc3C(C)(C)N4)cc(F)cc12 [Example 296, 7-(Difluoro-methyl)-9-fluoro-8-(5-fluoro-3-methyl-1H-indol-7-yl)-1,4,4-trimethyl-5H-[1,2,4]triazolo[4,3-a]quinoxaline] | 0.1 to 1
COCCn1ccc2c(-c3c(OC)cc4c(c3F)-n3c(C)nnc3C(C)(C)N4)cc(F)cc21 [Example 353, 9-Fluoro-8-[6-fluoro-1-(2-methoxy-ethyl)-1H-indol-4-yl]-7-methoxy-1,4,4-trimethyl-5H-[1,2,4]triazolo [4,3-a]quinoxaline] | 1 to 15
COCCn1ccc2c(-c3c(F)cc4c(c3F)-n3c(C)nnc3C(C)(C)N4)cccc21 [Example 204, 7,9-Difluoro-8-[1-(2-methoxy-ethyl)-1H-indol-4-yl]-1,4,4-trimethyl-5H-[1,2,4]triazolo[4,3-a]quinoxaline] | 0.1 to 1
COCCn1c(C(F)(F)F)cc2c(-c3c(F)cc4c(c3F)-n3c(C)nnc3C(C)(C)N4)cccc21 [Example 289, 7,9-Difluoro-8-[1-(2-methoxy-ethyl)-2-(trifluoromethyl)-1H-indol-4-yl]-1,4,4-trimethyl-5H-[1,2,4]triazolo[4,3-a]quinoxaline] | 1 to 15
COCCn1ccc2c(-c3c(Cl)cc4c(c3C)-n3c(C)nnc3C(C)(C)N4)cccc21 [Example 338, 7-Chloro-8-[1-(2-methoxy-ethyl)-1H-indol-4-yl]-1,4,4,9-tetramethyl-5H-[1,2,4]triazolo[4,3-a]quinoxaline] | 0.1 to 1
Cc1c(-c2cccc3c2cnn3S(C)(=O)=O)c(F)cc2c1-n1c(C)nnc1C(C)(C)N2 [Example 377, 7-Fluoro-1,4,4,9-tetramethyl-8-(1-methylsulfonyl-1H-indazol-4-yl)-5H-[1,2,4]triazolo[4,3-a]quinoxaline] | 0.1 to 1
CC#Cc1c[nH]c2c(-c3c(F)cc4c(c3C)-n3c(CO)nnc3C(C)(C)N4)cc(F)cc12 [Example 77, (7-fluoro-8-(5-fluoro-3-(prop-1-yn-1-yl)-1H-indol-7-yl)-4,4,9-trimethyl-4,5-dihydro-[1,2,4]triazolo[4,3-a]quinoxalin-1-yl)methanol] | 0.1 to 1
Cc1cc2c(c(C)c1-c1cccc3c1ccn3S(C)(=O)=O)-n1c(C)nnc1C(C)(C)N2 [Example 309, 1,4,4,7,9-Pentamethyl-8-(1-methylsulfonyl-1H-indol-4-yl)-5H-[1,2,4]triazolo[4,3-a]quinoxaline] | < 0.1
